Experimental data: patent publication US20140243403A1, “TREATING COLORECTAL, PANCREATIC, AND LUNG CANCER” (The General Hospital Corporation, priority 2011, published 2014)

Tests used:
Assay in all cases: Cellular proliferation and viability, CRC cell line panel
Type in all cases: cell-based, human
C170 cells = settings: KRAS G13D (KRAS-dependent), BRAF WT, CTNNB1 WT, 3 days post-treatment
Description: (§1) (A) IC50 values (μM) for effects on cellular proliferation and viability with the TAK1 kinase inhibitor 5z-7-oxozeaenol in a panel of colon cancer cell lines that have been genotyped as KRAS mutant (KRAS-independent—circles or KRAS-dependent—squares), BRAF mutant (triangles) or wild-type for both KRAS and BRAF (OTHER—diamonds). Effects on growth were measured 3 days post-treatment. Data are represented as the mean of 3 independent experiments and error bars indicate the median±interquartile range. *denotes p<0.00001; n.s.—not significant.
(§2) To further validate TAK1 as a candidate therapeutic target in this context, a potent and selective TAK1 kinase inhibitor, 5Z-7-oxozeaenol (Rawlins et al., 1999), was used. Sensitivity to 5Z-7-oxozeaenol was tested in a panel of 47 colon cancer cell lines with various genotypes (FIGS. 3A and 9A). KRAS and BRAF genotypes were either procured from the Sanger Institute's Catalog of Somatic Mutations (COSMIC) or determined by targeted resequencing (Table 2). KRAS mutation status was determined as described above; the same methods were used to determine the mutation states of BRAF. BRAF exon15 was sequenced with TCATAATGCTTGCTCTGATAGGA (forward; SEQ ID NO:3) and GGCCAAAAATTTAATCAGTGG (reverse; SEQ ID NO:4).

SW1417 cells = settings: KRAS WT, BRAF V600E, APC del, CTNNB1 WT, 3 days post-treatment
Description: as §1, §2

RKO cells = settings: KRAS WT, BRAF V600E, APC del, CTNNB1 WT, 3 days post-treatment
Description: as §1, §2

COLO-678 cells = settings: KRAS G12D (KRAS-dependent), BRAF WT, APC del, CTNNB1 WT, 3 days post-treatment
Description: as §1, §2

Hs 1.Int cells = settings: KRAS WT, BRAF WT, 3 days post-treatment
Description: as §1, §2

SW1463 cells = settings: KRAS G12C, BRAF WT, APC del, CTNNB1 WT, 3 days post-treatment
Description: as §1, §2

HCT-15 cells = settings: KRAS G13D, BRAF WT, APC del, CTNNB1 WT, 3 days post-treatment
Description: as §1, §2

Hs 257.T cells = settings: KRAS G13D, BRAF WT, 3 days post-treatment
Description: as §1, §2

H630 cells = settings: KRAS WT, BRAF WT, APC del, CTNNB1 WT, 3 days post-treatment
Description: as §1, §2

C2BBe1 cells = settings: KRAS WT, BRAF WT, APC del, CTNNB1 WT, 3 days post-treatment
Description: as §1, §2

LS-180 cells = settings: KRAS G12D, BRAF WT, APC WT, CTNNB1 S45A, 3 days post-treatment
Description: as §1, §2

HCT-116 cells = settings: KRAS G13D, BRAF WT, APC WT, CTNNB1 S45del, 3 days post-treatment
Description: as §1, §2

OUMS-23 cells = settings: KRAS WT, BRAF WT, 3 days post-treatment
Description: as §1, §2

LS-174T cells = settings: KRAS G12D, BRAF WT, APC WT, CTNNB1 S45A, 3 days post-treatment
Description: as §1, §2

Gp5D cells = settings: KRAS G12D (KRAS-dependent), BRAF WT, APC del, CTNNB1 WT, 3 days post-treatment
Description: as §1, §2

COLO-741 cells = settings: KRAS WT, BRAF V600E, 3 days post-treatment
Description: as §1, §2

CL-40 cells = settings: KRAS G12D (KRAS-dependent), BRAF WT, 3 days post-treatment
Description: as §1, §2

SW1116 cells = settings: KRAS G12A (KRAS-dependent), BRAF WT, APC del, CTNNB1 WT, 3 days post-treatment
Description: as §1, §2

WiDR cells = settings: KRAS WT, BRAF V600E, APC del, CTNNB1 WT, 3 days post-treatment
Description: as §1, §2

CaR-1 cells = settings: KRAS WT, BRAF WT, 3 days post-treatment
Description: as §1, §2

SW48 cells = settings: KRAS WT, BRAF WT, APC WT, CTNNB1 S33Y, 3 days post-treatment
Description: as §1, §2

SW620 cells = settings: KRAS G12V (KRAS-dependent), BRAF WT, APC del, CTNNB1 WT, 3 days post-treatment
Description: as §1, §2

CL-34 cells = settings: KRAS WT, BRAF V600E, 3 days post-treatment
Description: as §1, §2

CoCM-1 cells = settings: KRAS WT, BRAF WT, APC WT, CTNNB1 WT, 3 days post-treatment
Description: as §1, §2

CL-11 cells = settings: KRAS V14I (KRAS-dependent), BRAF WT, CTNNB1 WT, 3 days post-treatment
Description: as §1, §2

HRT-18 cells = settings: KRAS G13D, BRAF WT, APC del, CTNNB1 WT, 3 days post-treatment
Description: as §1, §2

LoVo cells = settings: KRAS G13D (KRAS-dependent), BRAF WT, APC del, CTNNB1 WT, 3 days post-treatment
Description: as §1, §2

COLO-206F cells = settings: KRAS WT, BRAF V600E, 3 days post-treatment
Description: as §1, §2

HT29 cells = settings: KRAS WT, BRAF V600E, APC del, CTNNB1 WT, 3 days post-treatment
Description: as §1, §2

HT115 cells = settings: KRAS WT, BRAF WT, APC WT, CTNNB1 WT, 3 days post-treatment
Description: as §1, §2

## COc1cc(O)c2c(c1)/C=C/C[C@H](O)[C@H](O)C(=O)/C=C\C[C@H](C)OC2=O [5Z-7-oxozeaenol]
C170 cells
  IC50: 1.07 µM
SW1417 cells
  IC50: 1.24 µM
RKO cells
  IC50: 1.1 µM
COLO-678 cells
  IC50: 0.774 µM
Hs 1.Int cells
  IC50: 5.64 µM
SW1463 cells
  IC50: 2.42 µM
HCT-15 cells
  IC50: 8.2 µM
Hs 257.T cells
  IC50: 3.2 µM
H630 cells
  IC50: 4.48 µM
C2BBe1 cells
  IC50: 9.32 µM
LS-180 cells
  IC50: 6.75 µM
HCT-116 cells
  IC50: 2.38 µM
OUMS-23 cells
  IC50: 48.4 µM
LS-174T cells
  IC50: 6.23 µM
Gp5D cells
  IC50: 1.77 µM
COLO-741 cells
  IC50: 1.82 µM
CL-40 cells
  IC50: 0.482 µM
SW1116 cells
  IC50: 0.122 µM
WiDR cells
  IC50: 2.48 µM
CaR-1 cells
  IC50: 6.08 µM
SW48 cells
  IC50: 1.94 µM
SW620 cells
  IC50: 0.093 µM
CL-34 cells
  IC50: 0.489 µM
CoCM-1 cells
  IC50: 0.926 µM
CL-11 cells
  IC50: 1.16 µM
HRT-18 cells
  IC50: 60 µM
LoVo cells
  IC50: 0.106 µM
COLO-206F cells
  IC50: 0.509 µM
HT29 cells
  IC50: 7.88 µM
HT115 cells
  IC50: 1.33 µM
